Test results reported in paper PMC8596843, “Platinum Cyclooctadiene Complexes with Activity against Gram‐positive Bacteria” (Chemmedchem, 2021).

Columns and labels:
[1] = tested on: Staphylococcus aureus (ATCC 43300, MRSA); test: In vivo efficacy in MRSA-infected moth larvae; set-up: species or system Galleria mellonella; settings: 24 h after drug administration; vs 10 % DMSO control; rifampicin 0.4 mg/mL, 10 µL
Method: Ethics Committee was obtained for use of human blood for haemolysis studies (approval number […]
G. mellonella larvae were reared in controlled environmental room at Macquarie University, Sydney, Australia at 26 °C and 65% humidity with a 12-hours light/dark cycle. Larvae (~200 mg) were individually injected with 10 µL of chemical into the last right proleg using a 100 μL syringe (Hamilton Ltd). The […]
Each compound was dissolved in DMSO and diluted to final concentrations of 1 µM, 100 µM and 10 mM. We injected 5 larvae for each dilution of each compound.
Larvae injected with different dilutions of DMSO (10-1, 10-3 and 10-5) were included as negative controls.
Following injection, the larvae were incubated at 26 °C and monitored every 24 h for 4 days. Larval performance was assessed according to the G. mellonella Health Index Scoring System.[1] The experiments were repeated three separate times.
Galleria larvae (weighing between 200-250 mg) were infected with […] cells of Staphylococcus aureus (ATCC 43300, MRSA) (suspended in 10 µL PBS) and incubated at 37 °C. Two hours later, 10 µL compounds of either Pt1 or Pt2 (0.4 mM) in 10% DMSO was injected to the other proleg of the larvae.
Larvae injected with 10% DMSO and Rifampicin (0.4 mg/mL) were included as controls. […] Bacterial number was determined by drop plate method. […] Bacterial number was counted after incubation for 24 h.

[2] = set-up: method as in PMID 33469147; settings: mouse skin infection models, topical; cited from earlier work
[3] = Antimicrobial activity of cisplatin in all assays of the paper; assay type: cell-based
Method: Following a protocol previously reported by us we used larvae of the greater wax moth Galleria mellonella as a model organism for in vivo toxicity and efficacy.[20] […] Briefly, stock solutions of Pt1 and Pt2 were prepared in DMSO and diluted to final concentrations of 0.4 mM, 100 μM, 10 μM and 1 μM. Due to solubility limitations higher concentrations could not be evaluated. For each concentration five larvae were injected with 10 μL and monitored for 96 hours for survival and health using the G. mellonella Health Index Scoring System.[22]

In the case of `CO[C@H]1/C=C/O[C@@]2(C)Oc3c(C)c(O)c4c(O)c(c(/C=N/N5CCN(C)CC5)c(O)c4c3C2=O)NC(=O)/C(C)=C\C=C\[C@H](C)[C@H](O)[C@@H](C)[C@@H](O)[C@@H](C)[C@H](OC(C)=O)[C@@H]1C` [Rifampicin], the “reduction in CFU (bacterial load per larva)” value [1] is reported as 2 log.

For `C=C(C)[C@@H]1CCC(C)=C[C@H]1c1c(O)cc(CCCCC)cc1O` [cannabidiol], the bacterial load [2] is listed as “able to reduce bacterial load”.

In the case of `N.N.[Cl][Pt][Cl]` [cisplatin], the antimicrobial activity [3] is reported as “no antimicrobial activity”.
